Measurements reported in PMC3117942 (2011).

Molecular target: T1, RARγ (Homo sapiens, UniProt P13631)
T1 sequence (P13631 185-419 limits assumed): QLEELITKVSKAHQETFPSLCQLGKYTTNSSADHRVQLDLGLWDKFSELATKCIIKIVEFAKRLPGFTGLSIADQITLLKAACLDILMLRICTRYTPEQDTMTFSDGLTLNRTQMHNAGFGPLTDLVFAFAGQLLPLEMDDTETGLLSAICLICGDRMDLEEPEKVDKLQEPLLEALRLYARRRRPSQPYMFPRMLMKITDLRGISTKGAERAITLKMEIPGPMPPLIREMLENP
Experiment: Gal4-RARγ-LBD UAS-luciferase reporter in HEK293T, activation at […]
Assay type: cell-based
Settings: hek293t cells

CC1=C(/C=C/C(C)=C/C=C/C(C)=C/C(=O)O)C(C)(C)CCC1 [ATRA, all-trans retinoic acid]
Gal4-RARγ-LBD UAS-luciferase reporter in HEK293T, activation at 1 nM (2.1 fold): 2.1 fold
